Laboratory results: ChEMBL document CHEMBL6127154, “Pursuing Polypharmacology: Benzothiopyranoindoles as G-Quadruplex Stabilizers and Topoisomerase I Inhibitors for Effective Anticancer Strategies” (ACS Med Chem Lett, 2024)
Calls of active or inactive are those of the source. The rule behind the calls is not given here.

How the values were obtained:
SK-MEL-28 = assay: Antiproliferative activity against human SK-MEL-28 cells assessed as growth inhibition incubated for 48 hrs by SRB assay; assay type: functional
SF-295 = assay: Antiproliferative activity against human SF-295 cells assessed as growth inhibition incubated for 48 hrs by SRB assay; assay type: functional
KM12 = assay: Antiproliferative activity against human KM12 cells assessed as growth inhibition incubated for 48 hrs by SRB assay; assay type: functional
Quadruplex DNA [1] = assay: Thermal stabilization of human c-Kit2 G4 quadruplex DNA assessed as change in melting temperature (deltaT1/2) incubated for 10 mins by circular dichroism spectroscopic analysis (reference value: 62.4 +/-0.1 degreeC); assay type: nucleic-acid assay
Quadruplex DNA [2] = assay: Thermal stabilization of human Tel23-p G4 quadruplex DNA assessed as change in melting temperature (deltaT1/2) incubated for 10 mins by circular dichroism spectroscopic analysis (reference value: 68.2 +/- 0.1 degreeC); assay type: nucleic-acid assay
A498 = assay: Antiproliferative activity against human A498 cells assessed as growth inhibition incubated for 48 hrs by SRB assay; assay type: functional
HCT-116 [3] = assay: Induction of DNA damage in human HCT-116 cells assessed as increase in 53BP1 foci positive cells incubated for 24 hrs by immunofluorescence staining based analysis; assay type: functional, cell-based
PC-3 = assay: Antiproliferative activity against human PC-3 cells assessed as growth inhibition incubated for 48 hrs by SRB assay; assay type: functional
SW-620 = assay: Antiproliferative activity against human SW620 cells assessed as growth inhibition incubated for 48 hrs by SRB assay; assay type: functional
SN12C = assay: Antiproliferative activity against human SN12C cells assessed as growth inhibition incubated for 48 hrs by SRB assay; assay type: functional
OVCAR-4 = assay: Antiproliferative activity against human OVCAR-4 cells assessed as growth inhibition incubated for 48 hrs by SRB assay; assay type: functional
K562 = assay: Antiproliferative activity against human K562 cells assessed as growth inhibition incubated for 48 hrs by SRB assay; assay type: functional
UACC-62 = assay: Antiproliferative activity against human UACC-62 cells assessed as growth inhibition incubated for 48 hrs by SRB assay; assay type: functional
SK-OV-3 = assay: Antiproliferative activity against human SK-OV-3 cells assessed as growth inhibition incubated for 48 hrs by SRB assay; assay type: functional
UO-31 = assay: Antiproliferative activity against human UO-31 cells assessed as growth inhibition incubated for 48 hrs by SRB assay; assay type: functional
HCT-116 [4] = assay: Induction of DNA damage in human HCT-116 cells assessed as increase in gammaH2AX level incubated for 24 hrs by immunofluorescence staining based analysis; assay type: functional, cell-based
[5] = target: DNA topoisomerase 1 (Homo sapiens) (UniProt P11387); assay: Inhibition of human Topoisomerase 1 assessed as relaxation of supercoiled plasmid pBR322 DNA at 2.5 uM incubated for 1 hr by ethidium bromide staining based agarose gel electrophoresis
Quadruplex DNA [6] = assay: Thermal stabilization of human Tel23-hy G4 quadruplex DNA assessed as change in melting temperature (deltaT1/2) incubated for 10 mins by circular dichroism spectroscopic analysis (reference value: 48 +/- 0.1 degreeC); assay type: nucleic-acid assay
DU-145 = assay: Antiproliferative activity against human DU-145 cells assessed as growth inhibition incubated for 48 hrs by SRB assay; assay type: functional
HCT-116 [7] = assay: Antiproliferative activity against human HCT-116 cells assessed as growth inhibition incubated for 48 hrs by SRB assay; assay type: functional
MDA-MB-468 = assay: Antiproliferative activity against human MDA-MB-468 cells assessed as growth inhibition incubated for 48 hrs by SRB assay; assay type: functional
SNB-75 = assay: Antiproliferative activity against human SNB-75 cells assessed as growth inhibition incubated for 48 hrs by SRB assay; assay type: functional
SK-MEL-2 = assay: Antiproliferative activity against human SK-MEL-2 cells assessed as growth inhibition incubated for 48 hrs by SRB assay; assay type: functional
SF-268 = assay: Antiproliferative activity against human SF-268 cells assessed as growth inhibition incubated for 48 hrs by SRB assay; assay type: functional
OVCAR-8 = assay: Antiproliferative activity against human OVCAR-8 cells assessed as growth inhibition incubated for 48 hrs by SRB assay; assay type: functional
ACHN = assay: Antiproliferative activity against human ACHN cells assessed as growth inhibition incubated for 48 hrs by SRB assay; assay type: functional
IGROV-1 = assay: Antiproliferative activity against human IGROV-1 cells assessed as growth inhibition incubated for 48 hrs by SRB assay; assay type: functional
EKVX = assay: Antiproliferative activity against human EKVX cells assessed as growth inhibition incubated for 48 hrs by SRB assay; assay type: functional
NCI-H460 = assay: Antiproliferative activity against human NCI-H460 cells assessed as growth inhibition incubated for 48 hrs by SRB assay; assay type: functional
TK-10 = assay: Antiproliferative activity against human TK-10 cells assessed as growth inhibition incubated for 48 hrs by SRB assay; assay type: functional
T47D = assay: Antiproliferative activity against human T47D cells assessed as growth inhibition incubated for 48 hrs by SRB assay; assay type: functional
HOP-92 = assay: Antiproliferative activity against human HOP-92 cells assessed as growth inhibition incubated for 48 hrs by SRB assay; assay type: functional
Quadruplex DNA [8] = assay: Stabilization of human telomeric 26 hybrid G4 quadruplex DNA incubated for 10 mins by circular dichroism spectroscopic analysis; assay type: nucleic-acid assay
MCF7 = assay: Antiproliferative activity against human MCF7 cells assessed as growth inhibition incubated for 48 hrs by SRB assay; assay type: functional
UACC-257 = assay: Antiproliferative activity against human UACC-257 cells assessed as growth inhibition incubated for 48 hrs by SRB assay; assay type: functional
SR = assay: Antiproliferative activity against human SR cells assessed as growth inhibition incubated for 48 hrs by SRB assay; assay type: functional
NCI-H322M = assay: Antiproliferative activity against human NCI-H322M cells assessed as growth inhibition incubated for 48 hrs by SRB assay; assay type: functional
HOP-62 = assay: Antiproliferative activity against human HOP-62 cells assessed as growth inhibition incubated for 48 hrs by SRB assay; assay type: functional
HT-29 = assay: Antiproliferative activity against human HT-29 cells assessed as growth inhibition incubated for 48 hrs by SRB assay; assay type: functional
RXF 393 = assay: Antiproliferative activity against human RXF 393 cells assessed as growth inhibition incubated for 48 hrs by SRB assay; assay type: functional
Malme-3M = assay: Antiproliferative activity against human Malme-3M cells assessed as growth inhibition incubated for 48 hrs by SRB assay; assay type: functional
Quadruplex DNA [9] = assay: Stabilization of human telomeric 23 hybrid G4 quadruplex DNA incubated for 10 mins by circular dichroism spectroscopic analysis; assay type: nucleic-acid assay
OVCAR-5 = assay: Antiproliferative activity against human OVCAR-5 cells assessed as growth inhibition incubated for 48 hrs by SRB assay; assay type: functional
Hs-578T = assay: Antiproliferative activity against human Hs-578T cells assessed as growth inhibition incubated for 48 hrs by SRB assay; assay type: functional
MOLT-4 = assay: Antiproliferative activity against human MOLT-4 cells assessed as growth inhibition incubated for 48 hrs by SRB assay; assay type: functional
OVCAR-3 = assay: Antiproliferative activity against human OVCAR-3 cells assessed as growth inhibition incubated for 48 hrs by SRB assay; assay type: functional

Sequence of DNA topoisomerase 1 (Homo sapiens) (P11387 whole entry): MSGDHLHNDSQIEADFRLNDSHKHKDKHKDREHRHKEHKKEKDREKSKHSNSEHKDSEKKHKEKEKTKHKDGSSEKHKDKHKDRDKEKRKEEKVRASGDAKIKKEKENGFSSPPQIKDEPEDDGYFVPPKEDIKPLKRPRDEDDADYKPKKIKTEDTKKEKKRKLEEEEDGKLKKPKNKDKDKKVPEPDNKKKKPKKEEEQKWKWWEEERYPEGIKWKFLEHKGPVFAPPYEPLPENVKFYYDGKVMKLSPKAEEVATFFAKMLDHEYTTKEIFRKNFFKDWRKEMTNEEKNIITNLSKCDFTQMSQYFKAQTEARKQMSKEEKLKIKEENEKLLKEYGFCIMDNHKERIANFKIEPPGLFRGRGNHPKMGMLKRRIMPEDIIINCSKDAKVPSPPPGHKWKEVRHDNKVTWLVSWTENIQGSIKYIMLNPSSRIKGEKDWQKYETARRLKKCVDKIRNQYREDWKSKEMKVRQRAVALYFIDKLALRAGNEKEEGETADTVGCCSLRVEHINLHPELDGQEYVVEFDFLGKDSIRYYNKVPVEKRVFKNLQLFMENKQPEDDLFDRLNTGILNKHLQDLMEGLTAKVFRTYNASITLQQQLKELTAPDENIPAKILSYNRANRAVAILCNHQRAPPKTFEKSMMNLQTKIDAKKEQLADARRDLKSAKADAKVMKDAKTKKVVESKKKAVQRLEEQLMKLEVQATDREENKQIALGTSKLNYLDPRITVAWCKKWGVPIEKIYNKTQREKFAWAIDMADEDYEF

## CCN(CC)CCn1c2ccc(OC)cc2c2sc3cc(OC)ccc3c(=O)c21
SK-MEL-28
  GI: 1.7 µM
SF-295
  GI: 1.82 µM
KM12
  GI: 2 µM
Quadruplex DNA [1]
  ΔTm: > 20 °C
Quadruplex DNA [2]
  ΔTm: > 20 °C
A498
  GI: 1.12 µM
HCT-116 [3]
  Activity: Active
PC-3
  GI: 1.34 µM
SW-620
  GI: 0.825 µM
SN12C
  GI: 2.03 µM
OVCAR-4
  GI: 1.84 µM
K562
  GI: 0.728 µM
UACC-62
  GI: 1.8 µM
SK-OV-3
  GI: 3.07 µM
UO-31
  GI: 1.35 µM
HCT-116 [4]
  Activity: Active
[5]
  inhibition: Active
Quadruplex DNA [6]
  ΔTm: 11 °C
DU-145
  GI: 1.67 µM
HCT-116 [7]
  GI: 0.659 µM
MDA-MB-468
  GI: 1.56 µM
SNB-75
  GI: 1.11 µM
SK-MEL-2
  GI: 2.1 µM
SF-268
  GI: 1.87 µM
OVCAR-8
  GI: 1.93 µM
ACHN
  GI: 1 µM
IGROV-1
  GI: 1.53 µM
EKVX
  GI: 1.6 µM
NCI-H460
  GI: 1.08 µM
TK-10
  GI: 2.33 µM
T47D
  GI: 2 µM
HOP-92
  GI: 1.13 µM
Quadruplex DNA [8]
  Activity: Active
MCF7
  GI: 1.16 µM
UACC-257
  GI: 1.92 µM
SR
  GI: 0.704 µM
NCI-H322M
  GI: 1.59 µM
HOP-62
  GI: 2.32 µM
HT-29
  GI: 1.52 µM
RXF 393
  GI: 1.4 µM
Malme-3M
  GI: 1.59 µM
Quadruplex DNA [9]
  Activity: Active
OVCAR-5
  GI: 1.92 µM
Hs-578T
  GI: 1.96 µM
MOLT-4
  GI: 0.383 µM
OVCAR-3
  GI: 2.12 µM
